Measurements as given in patent publication US20200268827A1, “COMPOSITION FOR PREVENTION, IMPROVEMENT OR TREATMENT OF OSTEOARTHRITIS COMPRISING ALPINIA OXYPHYLLA EXTRACT AS EFFECTIVE COMPONENT” (KOREA INSTITUTE OF ORIENTAL MEDICINE, priority 2017, published 2020).

Columns and labels:
Type in all cases: in vivo, SD rat
[1] = system: MIA (monosodium iodoacetate)-induced osteoarthritis; test: Bodyweight loading of hind limb in animal model of MIA-induced osteoarthritis (incapacitance tester); settings: compared to MIA group; oral once a day for 21 days, measured every 7 days; FIG. 1
Description: To determine the effect of an extract of Alpinia oxyphylla, which has been prepared in the above Example 1, on bodyweight loading in an animal model of MIA-induced osteoarthritis, MIA as an osteoarthritis-inducing material (diluted to 60 mg/ml with 0.9% physiological saline) was administered in an amount of 50 μl to an articular cavity of a right hind limb of 7-week old SD rat to induce osteoarthritis. After that, the animal was orally administered with an extract of Alpinia oxyphylla (150 or 300 mg/kg) once a day for 21 days, while the percentage of bodyweight loading was measured every 7 days. As a positive control group, indomethacin (1 mg/kg) was used.
The bodyweight loading on hind limb was measured by using a paw weight tester (Incapacitance tester, Linton instrument Co., UK, Ser No. 01/45/25). In a tester holder, the rat with induced osteoarthritis tends to stand on a normal paw which has not been administered with MIA due to the pain occurring in the other paw, and thus balance between the weights of two paws was not maintained so that the weight of paw administered with MIA is measured to be relatively lighter than the weight of normal paw. […] Then, by using the weight of paw which has been measured accordingly, percentage of bodyweight loading (%) was calculated based on the following Formula 1. […]

IL-6 = test: mRNA expression of inflammatory factor in joint with induced osteoarthritis by PCR; settings: compared to MIA-induced increase, FIG. 2
Excerpt: (§1) From a joint with induced osteoarthritis, mRNA was extracted and the expression of an inflammatory factor (IL-1β, IL-6, TNF-α and COX-2) and a cartilage degeneration-inducing factor (MMP-9) was examined by PCR.

IL-1β = test: as above; settings: compared to MIA-induced increase, FIG. 2
Excerpt: as §1

COX-2 = test: as above; settings: compared to MIA-induced increase, FIG. 2
Excerpt: as §1

TNF-α = test: as above; settings: compared to MIA-induced increase, FIG. 2
Excerpt: as §1

MMP-9 = test: mRNA expression of cartilage degeneration-inducing factor in joint with induced osteoarthritis by PCR; settings: compared to MIA-induced increase, FIG. 2
Excerpt: as §1

## COc1ccc2c(c1)c(CC(=O)O)c(C)n2C(=O)c1ccc(Cl)cc1 [indomethacin]
[1]
  percentage of bodyweight loading (%) of hind limb: higher than the MIA-induced osteoarthritis group
IL-6
  expression of IL-6 (inflammatory factor): decreased in significant sense
IL-1β
  expression of IL-1β (inflammatory factor): decreased in significant sense
COX-2
  expression of COX-2 (inflammatory factor): decreased in significant sense
TNF-α
  expression of TNF-α (inflammatory factor): decreased in significant sense
MMP-9
  expression of MMP-9 (cartilage degeneration-inducing factor): decreased in significant sense
